# From patent publication US20110182850A1, “ORGANIC COMPOUNDS AND THEIR USES” (priority 2009, published 2011)
# Target: T1, HCV NS3-4A serine protease (full-length NS3-4A protein, genotype 1a, strain HCV-1) (Hepatitis C virus genotype 1a, UniProt P26664)
# T1 construct: using the full-length NS3-4A protein (genotype 1a, strain HCV-1)
# Assay: HCV NS3-4A protease assay
# Assay type: biochemical
# Conditions: Protease IC50
# Method: The inhibitory activity of certain compounds of Table A against HCV NS3-4A serine protease is determined in a homogenous assay using the full-length NS3-4A protein (genotype 1a, strain HCV-1) and a commercially available internally-quenched fluorogenic peptide substrate as described by Taliani, M., et al. 1996 Anal. Biochem. 240:60-67, which is incorporated by reference in its entirety.
# T1 sequence (P26664 1658-1711): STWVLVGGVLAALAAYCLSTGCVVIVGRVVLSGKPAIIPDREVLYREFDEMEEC
# T1 sequence (P26664 1027-1657): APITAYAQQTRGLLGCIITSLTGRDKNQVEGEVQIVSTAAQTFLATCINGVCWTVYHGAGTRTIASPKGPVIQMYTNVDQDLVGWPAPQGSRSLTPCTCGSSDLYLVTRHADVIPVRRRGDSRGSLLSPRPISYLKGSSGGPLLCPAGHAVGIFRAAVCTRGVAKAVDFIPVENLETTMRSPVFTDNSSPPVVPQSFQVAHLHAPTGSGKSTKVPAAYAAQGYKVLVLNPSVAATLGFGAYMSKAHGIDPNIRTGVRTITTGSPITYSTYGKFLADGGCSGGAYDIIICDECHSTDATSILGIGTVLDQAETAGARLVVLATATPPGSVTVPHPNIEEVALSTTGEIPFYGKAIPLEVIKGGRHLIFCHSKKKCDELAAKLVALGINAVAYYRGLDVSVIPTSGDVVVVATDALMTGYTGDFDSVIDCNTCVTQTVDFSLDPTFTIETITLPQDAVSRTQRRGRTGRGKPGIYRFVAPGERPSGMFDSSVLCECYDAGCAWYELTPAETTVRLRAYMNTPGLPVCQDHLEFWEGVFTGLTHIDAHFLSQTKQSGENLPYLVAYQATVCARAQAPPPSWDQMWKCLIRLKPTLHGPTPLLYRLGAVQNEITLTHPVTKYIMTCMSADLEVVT
row,Compound,IC50
1,"C=C[C@H]1C[C@@]1(NC(=O)[C@@H]1C[C@@]2(CN1C(=O)[C@@H](NC(=O)[C@@H](NC(=O)C(C)(C)N1CCOCC1)C1CCCCC1)C(C)(C)C)C(C)(C)C21CCC1)C(=O)NS(=O)(=O)C1CC1 [Compound 101, (5R,8S)-7-[(2S)-2-({cyclohexyl[(2-methyl-2-morpholin-4-ylpropanoyl)amino]acetyl}amino)-3,3-dimethylbutanoyl]-N-{(1R,2S)-1-[(cyclopropylsulfonyl)carba-moyl]-2-vinylcyclopropyl}-10,10-dimethyl-7-azadispiro[3.0.4.1]decane-8-carboxamide]",1 nM
2,"C=C[C@H]1C[C@@]1(NC(=O)[C@@H]1C[C@@]2(CN1C(=O)[C@@H](NC(=O)[C@@H](NC(=O)C(C)(C)N1CCN(C(C)(C)C)CC1)C1CCCCC1)C(C)(C)C)C(C)(C)C21CCC1)C(=O)NS(=O)(=O)C1CC1 [Compound 102, (5R,8S)-7-[(2S)-2-{[{[2-(4-tert-butylpiperazin-1-yl)-2-methylpropanoyl]amino}(cyclo-hexyl)acetyl]amino}-3,3-dimethylbutanoyl]-N-{(1R,2S)-1-[(cyclopropylsulfonyl)carba-moyl]-2-vinylcyclopropyl}-10,10-dimethyl-7-azadispiro[3.0.4.1]decane-8-carboxamide]",1 nM
3,"C=C[C@H]1C[C@@]1(NC(=O)[C@@H]1C[C@@]2(CN1C(=O)[C@@H](NC(=O)[C@@H](NC(=O)c1nccn1C)C1CCCCC1)C(C)(C)C)C(C)(C)C21CCC1)C(=O)NS(=O)(=O)C1CC1 [Compound 103, (5R,8S)-7-{(2S)-2-[(cyclohexyl{[(1-methyl-1H-imidazol-2-yl)carbonyl]amino}acetyl)amino]-3,3-dimethylbutanoyl}-N-{(1R,2S)-1-[(cyclopropylsulfonyl)carba-moyl]-2-vinylcyclopropyl}-10,10-dimethyl-7-azadispiro[3.0.4.1]decane-8-carboxamide]",1.5 nM
4,"C=C[C@H]1C[C@@]1(NC(=O)[C@@H]1C[C@@]2(CN1C(=O)[C@@H](NC(=O)[C@@H](NC(=O)C(C)(C)N1CCCCC1)C1CCCCC1)C(C)(C)C)C(C)(C)C21CCC1)C(=O)NS(=O)(=O)C1CC1 [Compound 104, (5R,8S)-7-[(2S)-2-({cyclohexyl[(2-methyl-2-piperidin-1-ylpropanoyl)amino]acetyl}amino)-3,3-dimethylbutanoyl]-N-{(1R,2S)-1-[(cyclopropylsulfonyl)carba-moyl]-2-vinylcyclopropyl}-10,10-dimethyl-7-azadispiro[3.0.4.1]decane-8-carboxamide]",0.7 nM
5,"C=C[C@H]1C[C@@]1(NC(=O)[C@@H]1C[C@@]2(CN1C(=O)[C@@H](NC(=O)[C@@H](NC(=O)c1ncc[nH]1)C1CCCCC1)C(C)(C)C)C(C)(C)C21CCC1)C(=O)NS(=O)(=O)C1CC1 [Compound 105, (5R,8S)-7-[(2S)-2-({cyclohexyl[(1H-imidazol-2-ylcarbonyl)amino]acetyl}amino)-3,3-dimethylbutanoyl]-N-{(1R,2S)-1-[(cyclopropylsulfonyl)carba-moyl]-2-vinylcyclopropyl}-10,10-dimethyl-7-azadispiro[3.0.4.1]decane-8-carboxamide]",0.9 nM
6,"C=C[C@H]1C[C@@]1(NC(=O)[C@@H]1C[C@@]2(CN1C(=O)[C@@H](NC(=O)[C@@H](NC(=O)c1ccno1)C1CCCCC1)C(C)(C)C)C(C)(C)C21CCC1)C(=O)NS(=O)(=O)C1CC1 [Compound 107, (5R,8S)-7-[(2S)-2-({cyclohexyl[(isoxazol-5-ylcarbonyl)amino]acetyl}amino)-3,3-dimethylbutanoyl]-N-{(1R,2S)-1-[(cyclopropylsulfonyl)carba-moyl]-2-vinylcyclopropyl}-10,10-dimethyl-7-azadispiro[3.0.4.1]decane-8-carboxamide]",0.6 nM
7,"C=C[C@H]1C[C@@]1(NC(=O)[C@@H]1C[C@@]2(CN1C(=O)[C@@H](NC(=O)[C@@H](NC(=O)[C@@H]1CCCO1)C1CCCCC1)C(C)(C)C)C(C)(C)C21CCC1)C(=O)NS(=O)(=O)C1CC1 [Compound 108, (5R,8S)-7-{(2S)-2-[(cyclohexyl{[(2S)-tetrahydrofuran-2-ylcarbonyl]amino}acetyl)amino]-3,3-dimethylbutanoyl}-N-{(1R,2S)-1-[(cyclopropylsulfonyl)carba-moyl]-2-vinylcyclopropyl}-10,10-dimethyl-7-azadispiro[3.0.4.1]decane-8-carboxamide]",2.5 nM
8,"C=C[C@H]1C[C@@]1(NC(=O)[C@@H]1C[C@@]2(CN1C(=O)[C@@H](NC(=O)[C@@H](NC(=O)C1CNC(=O)C1)C1CCCCC1)C(C)(C)C)C(C)(C)C21CCC1)C(=O)NS(=O)(=O)C1CC1 (stereo partly drawn) [Compound 109, (5R,8S)-7-{(2S)-2-[(cyclohexyl{[(5-oxopyrrolidin-3-yl)carbonyl]amino}acetyl)amino]-3,3-dimethylbutanoyl}-N-{(1R,2S)-1-[(cyclopropylsulfonyl)carba-moyl]-2-vinylcyclopropyl}-10,10-dimethyl-7-azadispiro[3.0.4.1]decane-8-carboxamide]",0.6 nM
9,"C=C[C@@H]1C[C@]1(NC(=O)[C@@H]1C[C@@]2(CN1C(=O)[C@@H](NC(=O)[C@@H](NC(=O)[C@@H]1CCC(=O)N1)C1CCCCC1)C(C)(C)C)C(C)(C)C21CCC1)C(=O)NS(=O)(=O)C1CC1 [Compound 110, (5R,8S)-7-[(2S)-2-{[(2S)-2-cyclohexyl-2-({[(2S)-5-oxopyrrolidin-2-yl]carbonyl}amino)acetyl]amino}-3,3-dimethylbutanoyl]-N-{(1R,2S)-1-[(cyclopropylsulfonyl)carba-moyl]-2-vinylcyclopropyl}-10,10-dimethyl-7-azadispiro[3.0.4.1]decane-8-carboxamide]",1.5 nM
10,"C=C[C@@H]1C[C@]1(NC(=O)[C@@H]1C[C@@]2(CN1C(=O)[C@@H](NC(=O)[C@@H](NC(=O)[C@H]1CCC(=O)N1)C1CCCCC1)C(C)(C)C)C(C)(C)C21CCC1)C(=O)NS(=O)(=O)C1CC1 [Compound 111, (5R,8S)-7-[(2S)-2-{[(2S)-2-cyclohexyl-2-({[(2R)-5-oxopyrrolidin-2-yl]carbonyl}amino)acetyl]amino}-3,3-dimethylbutanoyl]-N-{(1R,2S)-1-[(cyclopropylsulfonyl)carba-moyl]-2-vinylcyclopropyl}-10,10-dimethyl-7-azadispiro[3.0.4.1]decane-8-carboxamide]",2 nM
11,"C=C[C@@H]1C[C@]1(NC(=O)[C@@H]1C[C@@]2(CN1C(=O)[C@@H](NC(=O)[C@@H](NC(=O)c1cocn1)C1CCCCC1)C(C)(C)C)C(C)(C)C21CCC1)C(=O)NS(=O)(=O)C1CC1 [Compound 112, (5R,8S)-7-[(2S)-2-({(2S)-2-cyclohexyl-2-[(1,3-oxazol-4-ylcarbonyl)amino]acetyl}amino)-3,3-dimethylbutanoyl]-N-{(1R,2S)-1-[(cyclopropylsulfonyl)carba-moyl]-2-vinylcyclopropyl}-10,10-dimethyl-7-azadispiro[3.0.4.1]decane-8-carboxamide]",1.5 nM
12,"C=C[C@@H]1C[C@]1(NC(=O)[C@@H]1C[C@@]2(CN1C(=O)[C@@H](NC(=O)[C@@H](NC(=O)c1cnco1)C1CCCCC1)C(C)(C)C)C(C)(C)C21CCC1)C(=O)NS(=O)(=O)C1CC1 [Compound 113, (5R,8S)-7-[(2S)-2-({(2S)-2-cyclohexyl-2-[(1,3-oxazol-5-ylcarbonyl)amino]acetyl}amino)-3,3-dimethylbutanoyl]-N-{(1R,2S)-1-[(cyclopropylsulfonyl)carba-moyl]-2-vinylcyclopropyl}-10,10-dimethyl-7-azadispiro[3.0.4.1]decane-8-carboxamide]",2.5 nM
13,"C=C[C@@H]1C[C@]1(NC(=O)[C@@H]1C[C@@]2(CN1C(=O)[C@@H](NC(=O)[C@@H](NC(=O)c1ccc[nH]1)C1CCCCC1)C(C)(C)C)C(C)(C)C21CCC1)C(=O)NS(=O)(=O)C1CC1 [Compound 114, (5R,8S)-7-[(2S)-2-({(2S)-2-cyclohexyl-2-[(1H-pyrrol-2-ylcarbonyl)amino]acetyl}amino)-3,3-dimethylbutanoyl]-N-{(1R,2S)-1-[(cyclopropylsulfonyl)carba-moyl]-2-vinylcyclopropyl}-10,10-dimethyl-7-azadispiro[3.0.4.1]decane-8-carboxamide]",0.7 nM
14,"C=C[C@@H]1C[C@]1(NC(=O)[C@@H]1C[C@@]2(CN1C(=O)[C@@H](NC(=O)[C@@H](NC(=O)c1ccncn1)C1CCCCC1)C(C)(C)C)C(C)(C)C21CCC1)C(=O)NS(=O)(=O)C1CC1 [Compound 115, (5R,8S)-7-[(2S)-2-({(2S)-2-cyclohexyl-2-[(pyrimidin-4-ylcarbonyl)amino]acetyl}amino)-3,3-dimethylbutanoyl]-N-{(1R,2S)-1-[(cyclopropylsulfonyl)carba-moyl]-2-vinylcyclopropyl}-10,10-dimethyl-7-azadispiro[3.0.4.1]decane-8-carboxamide]",0.6 nM
15,"C=C[C@@H]1C[C@]1(NC(=O)[C@@H]1C[C@@]2(CN1C(=O)[C@@H](NC(=O)[C@@H](NC(=O)c1cncnc1)C1CCCCC1)C(C)(C)C)C(C)(C)C21CCC1)C(=O)NS(=O)(=O)C1CC1 [Compound 116, (5R,8S)-7-[(2S)-2-({(2S)-2-cyclohexyl-2-[(pyrimidin-5-ylcarbonyl)amino]acetyl}amino)-3,3-dimethylbutanoyl]-N-{(1R,2S)-1-[(cyclopropylsulfonyl)carba-moyl]-2-vinylcyclopropyl}-10,10-dimethyl-7-azadispiro[3.0.4.1]decane-8-carboxamide]",0.6 nM
16,"C=C[C@@H]1C[C@]1(NC(=O)[C@@H]1C[C@@]2(CN1C(=O)[C@@H](NC(=O)[C@@H](NC(=O)c1ncccn1)C1CCCCC1)C(C)(C)C)C(C)(C)C21CCC1)C(=O)NS(=O)(=O)C1CC1 [Compound 117, (5R,8S)-7-[(2S)-2-({(2S)-2-cyclohexyl-2-[(pyrimidin-2-ylcarbonyl)amino]acetyl}amino)-3,3-dimethylbutanoyl]-N-{(1R,2S)-1-[(cyclopropylsulfonyl)carba-moyl]-2-vinylcyclopropyl}-10,10-dimethyl-7-azadispiro[3.0.4.1]decane-8-carboxamide]",8 nM
